The record followed here is PubChem BioAssay (NCI).

SMILES strings stand for the structures.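 Briefly, cells in 96-well plates were exposed to five compound concentrations for 48 h, and endpoints were estimated by linear interpolation. TGI denotes the concentration required for complete inhibition of growth.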

Some test systems named below: HOP-92 NSCLC; MOLT-4 leukemia; M14 melanoma; PC-3 prostate; OVCAR-8 ovarian; UO-31 renal; MDA-MB-231 breast; MALME-3M melanoma; K-562 leukemia; 786-0 renal; OVCAR-3 ovarian; A498 renal; MDA-N; SN12C renal; HOP-62 NSCLC; T-47D breast; NCI-H522 lung; OVCAR-5 ovarian; SF-539 CNS.
Assay in all cases: NCI anticancer screen, dose series, 48 h

For `CC(C)(C)C1CCC2c3c([nH]c4ccccc34)C3C(=O)N(c4ccccc4Cl)C(=O)C3C2C1` (stereo unspecified), the TGI with HOP-92 NSCLC was 0.739 µM; with MOLT-4 leukemia, over 100 µM; with M14 melanoma, 45.7 µM; in the test with PC-3 prostate it was 28 µM; in the test with OVCAR-8 ovarian, 50 µM; in the test on UO-31 renal, 78.1 µM. Besides, the TGI was 24.6 µM in the test with MDA-MB-231 breast; 37.1 µM in the test on MALME-3M melanoma; over 100 µM in the test on K-562 leukemia; 27.7 µM with 786-0 renal; 47.3 µM in the test with OVCAR-3 ovarian; 52.6 µM with A498 renal. The figures for the TGI in the test on MDA-N, in the test with SN12C renal and in the test on HOP-62 NSCLC were 29.3 µM, 22.7 µM and 32.5 µM, respectively.

For the molecule `CCC1(CC)C(=O)N(C(=O)c2ccccc2)N(C(=O)c2ccc(Cl)cc2)C1=O`, the TGI in the test with MOLT-4 leukemia is 47.7 µM; in the test with M14 melanoma it was over 75 µM; in the test with PC-3 prostate it was over 75 µM; with OVCAR-8 ovarian it was over 75 µM; in the test with T-47D breast, over 75 µM; in the test on NCI-H522 lung it was over 75 µM. Also, the TGI in the test on OVCAR-5 ovarian, in the test on UO-31 renal, in the test on MDA-MB-231 breast, in the test on MALME-3M melanoma, in the test with K-562 leukemia and in the test with 786-0 renal was over 75 µM throughout. Moreover, the TGI with OVCAR-3 ovarian, in the test on MDA-N, in the test with SN12C renal and in the test with HOP-62 NSCLC was over 75 µM in each case.

Consider `CC12CCC(=O)N1c1cncnc1N2` (stereo unspecified), for which the TGI with HOP-92 NSCLC, with MOLT-4 leukemia, with M14 melanoma, in the test on PC-3 prostate, in the test on OVCAR-8 ovarian and in the test on NCI-H522 lung was over 10 µM throughout. For the same molecule, the TGI in the test with OVCAR-5 ovarian, in the test with UO-31 renal, with SF-539 CNS, with MALME-3M melanoma, with K-562 leukemia and in the test on 786-0 renal was over 10 µM throughout. The TGI with OVCAR-3 ovarian, in the test with MDA-N and with SN12C renal was over 10 µM throughout.

Turning to `Oc1[nH]c(=S)[nH]c1/C=C1/C(c2ccccc2)=Nc2ccccc21`, the TGI in the test on MOLT-4 leukemia was 32.1 µM; in the test with PC-3 prostate it was 25.6 µM; in the test on OVCAR-8 ovarian it was 28.8 µM; in the test on NCI-H522 lung, 26.3 µM; with OVCAR-5 ovarian, 36.1 µM; in the test on UO-31 renal, 21.4 µM. The TGI with SF-539 CNS worked out at 31.2 µM; with MDA-MB-231 breast it was 33.5 µM; in the test with MALME-3M melanoma it was 26.4 µM; in the test with K-562 leukemia, 33.7 µM; in the test with 786-0 renal, 28.4 µM; in the test on OVCAR-3 ovarian it was 30 µM. For the same molecule, the TGI in the test with A498 renal turned out to be 25.3 µM; in the test on MDA-N, 28.4 µM; in the test on SN12C renal, 38.7 µM; with HOP-62 NSCLC, 29.1 µM.

On to `COc1cc(C2OC(N)=C(C#N)C3=C2C(C)CCC3)cc(OC)c1OC` (stereo unspecified), for which the TGI in the test on MOLT-4 leukemia, in the test on M14 melanoma, in the test on PC-3 prostate, with OVCAR-8 ovarian, with T-47D breast and in the test on OVCAR-5 ovarian was over 100 µM each time. For the same molecule, the TGI with UO-31 renal, in the test on SF-539 CNS, in the test on MDA-MB-231 breast, with MALME-3M melanoma, in the test with K-562 leukemia and in the test with 786-0 renal was over 100 µM each time. Also, the TGI was over 100 µM in the test with OVCAR-3 ovarian, over 100 µM in the test with MDA-N, over 100 µM in the test with SN12C renal and 40.7 µM in the test with HOP-62 NSCLC.

As to `CNC(=O)C1(C#N)C(c2ccccc2)C(C#N)(C(=O)NC)C1c1ccccc1` (stereo unspecified), the TGI with HOP-92 NSCLC, in the test on MOLT-4 leukemia, in the test on M14 melanoma, with PC-3 prostate, with OVCAR-8 ovarian and with T-47D breast was over 100 µM throughout. The TGI with NCI-H522 lung, in the test with OVCAR-5 ovarian, with UO-31 renal, in the test on SF-539 CNS, in the test on K-562 leukemia and in the test on 786-0 renal was over 100 µM each time. In addition, the TGI in the test with OVCAR-3 ovarian, in the test on A498 renal, in the test on MDA-N, in the test on SN12C renal and with HOP-62 NSCLC was over 100 µM in each case.

In the case of `COc1cc2cc(C(=O)N3CC(CCl)c4ccc([N+](=O)[O-])cc43)[nH]c2c(OC)c1OC` (stereo unspecified), the TGI in the test on HOP-92 NSCLC, in the test on MOLT-4 leukemia, in the test on M14 melanoma, with PC-3 prostate, with OVCAR-8 ovarian and with T-47D breast was over 100 µM in each case. Moreover, the TGI in the test on NCI-H522 lung, with OVCAR-5 ovarian, with UO-31 renal, in the test with SF-539 CNS, with MDA-MB-231 breast and with MALME-3M melanoma was over 100 µM throughout. For the same molecule, the TGI in the test with K-562 leukemia, in the test with 786-0 renal, in the test on OVCAR-3 ovarian, in the test on A498 renal, in the test with SN12C renal and in the test with HOP-62 NSCLC was over 100 µM throughout.

Consider `CN(C)C=Nc1c2ccccc2nc2ccccc12`, for which the TGI with HOP-92 NSCLC was determined as 22.3 µM; with MOLT-4 leukemia, 9.05 µM; in the test on M14 melanoma, 16.2 µM; with PC-3 prostate, 14.5 µM; in the test on OVCAR-8 ovarian, 18.3 µM; in the test with T-47D breast it was 9.67 µM. The TGI in the test with NCI-H522 lung amounted to 4.99 µM; with OVCAR-5 ovarian it was 32.8 µM; in the test with UO-31 renal it was 29.5 µM; with SF-539 CNS, 10.4 µM; in the test with MDA-MB-231 breast, 21.5 µM; with MALME-3M melanoma, 12.7 µM. Further, the TGI with K-562 leukemia came out at 22.6 µM; in the test with 786-0 renal, 16.9 µM; with OVCAR-3 ovarian, 13.4 µM; in the test with A498 renal, 21 µM; with SN12C renal it was 11.9 µM; in the test with HOP-62 NSCLC, 25.4 µM.
